Experimental data from patent US20230102554A1 (GB002, INC., priority 2019, published 2023).

Legend:
[1] = target: T1, Human PDGFRα, cytoplasmic domain (GST-PDGFRα) (Homo sapiens, UniProt P16234); assay: Human PDGFRα biochemical inhibition assay (off-chip Mobility Shift Assay)
T1 construct: made in house

[2] = target: T2, Human PDGFRβ, cytoplasmic domain (GST-PDGFRβ) (Homo sapiens, UniProt P09619); assay: Human PDGFRβ biochemical inhibition assay (off-chip Mobility Shift Assay)
T2 construct: made in house
In short: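 GST-tagged cytoplasmic domain (aa 557-1106) from baculovirus was incubated 1 h at room temperature with compound, CSKtide, ATP at Km and Mg²⁺ in HEPES buffer, pH 7.5. Phosphorylated and unphosphorylated peptide were separated by off-chip mobility shift, and the product ratio P/(P+S) gave percent inhibition.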

T2 sequence (P09619 with tags, fused parts or gaps): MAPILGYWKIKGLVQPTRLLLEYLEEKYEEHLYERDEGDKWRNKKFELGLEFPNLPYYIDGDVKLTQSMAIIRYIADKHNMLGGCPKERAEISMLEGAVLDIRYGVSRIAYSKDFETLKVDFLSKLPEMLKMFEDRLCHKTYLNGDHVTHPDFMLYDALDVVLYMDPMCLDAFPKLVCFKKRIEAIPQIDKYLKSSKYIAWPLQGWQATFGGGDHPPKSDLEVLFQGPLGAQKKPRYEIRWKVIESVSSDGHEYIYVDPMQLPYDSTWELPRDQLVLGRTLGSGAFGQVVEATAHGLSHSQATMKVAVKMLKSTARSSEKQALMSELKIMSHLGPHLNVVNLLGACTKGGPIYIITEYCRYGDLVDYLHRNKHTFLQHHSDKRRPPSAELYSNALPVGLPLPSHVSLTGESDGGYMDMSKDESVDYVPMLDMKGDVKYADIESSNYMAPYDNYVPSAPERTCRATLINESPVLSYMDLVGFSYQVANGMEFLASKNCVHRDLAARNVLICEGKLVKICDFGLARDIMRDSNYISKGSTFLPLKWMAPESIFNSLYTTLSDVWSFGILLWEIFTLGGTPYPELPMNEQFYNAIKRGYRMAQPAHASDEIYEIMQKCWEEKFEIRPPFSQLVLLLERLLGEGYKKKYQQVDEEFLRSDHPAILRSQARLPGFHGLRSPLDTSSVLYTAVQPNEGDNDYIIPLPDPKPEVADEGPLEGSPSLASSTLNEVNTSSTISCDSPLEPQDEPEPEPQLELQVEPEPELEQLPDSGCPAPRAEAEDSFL
T1 sequence (P16234 550-1089 T674I): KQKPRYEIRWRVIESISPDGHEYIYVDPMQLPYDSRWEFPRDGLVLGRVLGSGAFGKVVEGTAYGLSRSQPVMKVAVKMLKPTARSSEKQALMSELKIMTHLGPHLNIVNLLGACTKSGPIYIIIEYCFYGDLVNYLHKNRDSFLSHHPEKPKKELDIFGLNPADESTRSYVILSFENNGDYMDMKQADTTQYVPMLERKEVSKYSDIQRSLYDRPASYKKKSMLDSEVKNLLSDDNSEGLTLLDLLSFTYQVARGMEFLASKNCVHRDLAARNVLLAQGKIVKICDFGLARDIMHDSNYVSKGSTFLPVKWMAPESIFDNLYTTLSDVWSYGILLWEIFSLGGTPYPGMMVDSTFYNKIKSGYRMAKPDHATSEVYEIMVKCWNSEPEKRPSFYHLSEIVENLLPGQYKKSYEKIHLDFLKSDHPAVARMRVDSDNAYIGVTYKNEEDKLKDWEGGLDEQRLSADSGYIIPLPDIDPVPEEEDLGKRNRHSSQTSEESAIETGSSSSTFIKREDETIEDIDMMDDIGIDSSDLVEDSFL

SMILES	IC50 [1]	IC50 [2]
CCn1cc2ncc(N[C@@H](C)c3cccc(NC(=O)c4ccc(CN5CC[C@@H](F)C5)c(C)c4)c3)nc2n1 [Compound 469, N-(3-((S)-1-((2-ethyl-2H-pyrazolo[3,4-b]pyrazin-6-yl)amino)ethyl)phenyl)-4-(((R)-3-fluoropyrrolidin-1-yl)methyl)-3-methylbenzamide]	< 300 nM	< 300 nM
CCn1cc2ncc(N[C@@H](C)c3cc(NC(=O)c4ccc(CN5CCCC5)c(C)c4)ccc3F)nc2n1 [Compound 470, (S)-N-(3-(1-((2-ethyl-2H-pyrazolo[3,4-b]pyrazin-6-yl)amino)ethyl)-4-fluorophenyl)-3-methyl-4-(pyrrolidin-1-ylmethyl)benzamide]	< 300 nM	< 300 nM
CCn1cc2ncc(N[C@@H](C)c3cccc(NC(=O)c4ccc(CN5CC[C@H](O)C5)c(C)c4)c3)nc2n1 [Compound 471, N-(3-((S)-1-((2-ethyl-2H-pyrazolo[3,4-b]pyrazin-6-yl)amino)ethyl)phenyl)-4-(((S)-3-hydroxypyrrolidin-1-yl)methyl)-3-methylbenzamide]	300 to 1000 nM	≥ 1000 nM
CCn1cc2ncc(N[C@@H](C)c3cccc(NC(=O)c4ccc(C(=O)N5CCN(C)CC5)c(C)c4)c3)nc2n1 [Compound 472, (S)-N-(3-(1-((2-ethyl-2H-pyrazolo[3,4-b]pyrazin-6-yl)amino)ethyl)phenyl)-3-methyl-4-(4-methylpiperazine-1-carbonyl)benzamide]	< 300 nM	300 to 1000 nM
CCn1cc2ncc(N[C@@H](C)c3cccc(NC(=O)c4ccc(CN5CC6(CN(C)C6)C5)c(C)c4)c3)nc2n1 [Compound 473, (S)-N-(3-(1-((2-ethyl-2H-pyrazolo[3,4-b]pyrazin-6-yl)amino)ethyl)phenyl)-3-methyl-4-((6-methyl-2,6-diazaspiro[3.3]heptan-2-yl)methyl)benzamide]	< 300 nM	< 300 nM
CCn1cc2ncc(N[C@@H](C)c3cccc(NC(=O)c4ccc(CN5CCCC(F)(F)C5)c(C)c4)c3)nc2n1 [Compound 474, (S)-4-((3,3-difluoropiperidin-1-yl)methyl)-N-(3-(1-((2-ethyl-2H-pyrazolo[3,4-b]pyrazin-6-yl)amino)ethyl)phenyl)-3-methylbenzamide]	< 300 nM	< 300 nM
CCn1cc2ncc(N[C@@H](C)c3cccc(NC(=O)c4ccc(CN5[C@@H]6CC[C@H]5CN(C)C6)c(C)c4)c3)nc2n1 [Compound 475, N-(3-((S)-1-((2-ethyl-2H-pyrazolo[3,4-b]pyrazin-6-yl)amino)ethyl)phenyl)-3-methyl-4-(((1R,5S)-3-methyl-3,8-diazabicyclo[3.2.1]octan-8-yl)methyl)benzamide]	< 300 nM	< 300 nM
CCn1cc2ncc(N[C@@H](C)c3cccc(NC(=O)c4ccc(CN5CCC(F)(F)CC5)c(C)c4)c3)nc2n1 [Compound 476, (S)-4-((4,4-difluoropiperidin-1-yl)methyl)-N-(3-(1-((2-ethyl-2H-pyrazolo[3,4-b]pyrazin-6-yl)amino)ethyl)phenyl)-3-methylbenzamide]	< 300 nM	300 to 1000 nM
CCn1cc2ncc(N[C@@H](C)c3cccc(NC(=O)c4ccc(CN5CC6CC6C5)c(C)c4)c3)nc2n1 (some centres unmarked) [Compound 477, 4-((3-azabicyclo[3.1.0]hexan-3-yl)methyl)-N-(3-((5)-1-((2-ethyl-2H-pyrazolo[3,4-b]pyrazin-6-yl)amino)ethyl)phenyl)-3-methylbenzamide]	< 300 nM	< 300 nM
CCn1cc2ncc(N[C@@H](C)c3cccc(NC(=O)c4ccc(CN5C[C@@H](C)O[C@@H](C)C5)c(C)c4)c3)nc2n1 [Compound 478, 4-(((2S,6R)-2,6-dimethylmorpholino)methyl)-N-(3-((S)-1-((2-ethyl-2H-pyrazolo[3,4-b]pyrazin-6-yl)amino)ethyl)phenyl)-3-methylbenzamide]	< 300 nM	300 to 1000 nM
CCn1cc2ncc(N[C@@H](C)c3cccc(NC(=O)c4ccc(CN5CCN(C)C(=O)C5)c(C)c4)c3)nc2n1 [Compound 479, (S)-N-(3-(1-((2-ethyl-2H-pyrazolo[3,4-b]pyrazin-6-yl)amino)ethyl)phenyl)-3-methyl-4-((4-methyl-3-oxopiperazin-1-yl)methyl)benzamide]	< 300 nM	< 300 nM
CCn1cc2ncc(N[C@@H](C)c3cccc(NC(=O)c4ccc(CN5CCC6(CC5)COC6)c(C)c4)c3)nc2n1 [Compound 480, (S)-4-((2-oxa-7-azaspiro[3.5]nonan-7-yl)methyl)-N-(3-(1-((2-ethyl-2H-pyrazolo[3,4-b]pyrazin-6-yl)amino)ethyl)phenyl)-3-methylbenzamide]	< 300 nM	300 to 1000 nM
CCn1cc2ncc(N[C@@H](C)c3cccc(NC(=O)c4ccc(CN5CCCC6(COC6)C5)c(C)c4)c3)nc2n1 [Compound 481, (S)-4-((2-oxa-6-azaspiro[3.5]nonan-6-yl)methyl)-N-(3-(1-((2-ethyl-2H-pyrazolo[3,4-b]pyrazin-6-yl)amino)ethyl)phenyl)-3-methylbenzamide]	< 300 nM	< 300 nM
CCn1cc2ncc(N[C@@H](C)c3cccc(NC(=O)c4ccc(CN5CC[C@@H](O)C5)c(C)c4)c3)nc2n1 [Compound 482, N-(3-((S)-1-((2-ethyl-2H-pyrazolo[3,4-b]pyrazin-6-yl)annno)ethyl)phenyl)-4-(((R)-3-hydroxypyrrolidin-1-yl)methyl)-3-methylbenzamide]	< 300 nM	300 to 1000 nM
CCn1cc2ncc(N[C@@H](C)c3cccc(NC(=O)c4ccc(CN5CC[C@@H](O)C5)c(Cl)c4)c3)nc2n1 [Compound 483, 3-chloro-N-(3-((S)-1-((2-ethyl-2H-pyrazolo[3,4-b]pyrazin-6-yl)amino)ethyl)phenyl)-4-(((R)-3-hydroxypyrrolidin-1-yl)methyl) benzamide]	< 300 nM	< 300 nM
CCn1cc2ncc(N[C@@H](C)c3cccc(NC(=O)c4ccc(CN5CC[C@H](F)C5)c(Cl)c4)c3)nc2n1 [Compound 484, 3-chloro-N-(3-((S)-1-((2-ethyl-2H-pyrazolo[3,4-b]pyrazin-6-yl)amino)ethyl)phenyl)-4-(((S)-3-fluoropyrrolidin-1-yl)methyl) benzamide]	< 300 nM	< 300 nM
CCn1cc2ncc(N[C@@H](C)c3cccc(NC(=O)c4ccc(CN5CCC5)c(Cl)c4)c3)nc2n1 [Compound 486, (S)-4-(azetidin-1-ylmethyl)-3-chloro-N-(3-(1-((2-ethyl-2H-pyrazolo[3,4-b]pyrazin-6-yl)amino)ethyl)phenyl)benzamide]	< 300 nM	< 300 nM
CCn1cc2ncc(N[C@@H](C)c3cccc(NC(=O)c4ccc(CN5CC(O)C5)c(Cl)c4)c3)nc2n1 [Compound 487, (S)-3-chloro-N-(3-(1-((2-ethyl-2H-pyrazolo[3,4-b]pyrazin-6-yl)amino)ethyl)phenyl)-4-((3-hydroxyazetidin-1-yl)methyl) benzamide]	< 300 nM	< 300 nM
CCn1cc2ncc(N[C@@H](C)c3cccc(NC(=O)c4cc(F)c(CN5CCCC5)c(Cl)c4)c3)nc2n1 [Compound 488, (S)-3-chloro-N-(3-(1-((2-ethyl-2H-pyrazolo[3,4-b]pyrazin-6-yl)amino)ethyl)phenyl)-5-fluoro-4-(pyrrolidin-1-ylmethyl) benzamide]	< 300 nM	< 300 nM
